From patent publication US9522163B2, “Methods of treating hepatitis” (priority 2002, dated 2016) come the findings set out here.

The test system of one series is iNOS. Briefly: iNOS promoter luciferase reporter assay in hepatocytes. Format: cell-based. Particulars: BAY 11-7082 10 μM 1 hr prior to CO. How it is done:
In some experiments, gene transfer of an IκBα superrepressor (Hellerbrand et al., Hepatology 27:1285-1295 (1998)) or β-galactosidase using adenoviral vectors (10 pfu/cell) was performed 12 hours prior to TNF-α/ActD treatment. NF-κB activation was evaluated using a luciferase reporter assay as described in Chow et al. (J. Biol. Chem. 274: 10689-10692 (1999)). Briefly, hepatocytes were co-transfected with NF-κB reporter constructs (pGL3-kappaβ luciferase, 100 ng/well; and pIEP-Lac-z 0.5 μg/well) using Lipofectin™ (Invitrogen, Carlsbad, Calif.) as instructed by the manufacturer. Evaluation of iNOS expression was performed using a luciferase reporter assay as described in Lowenstein et al. (Proc. Natl. Acad. Sci. U.S.A 90: 9730-9734 (1993)). Briefly, hepatocytes were co-transfected with iNOS promoter reporter constructs (pXP2; 1 μg/well) and pIEP-LacZ (0.5 μg/well) as described above.
Hepatocytes were transfected with plasmids as described above and treated with various stimuli 24 hours after transfection. Luciferase activity (reported as arbitrary units; A.U.) was assayed 6 hours after initiation of treatment, using a luciferase assay kit (Promega, Madison, Wis.) and a Berthold Luminometer. Results were corrected for transfection efficiency and protein concentration. […]

For series [1], the system named is mouse primary hepatocytes. Briefly: TNF-α/ActD-induced cell death, crystal violet viability. Format: cell-based. Particulars: BAY 11-7082 (10 μM) to inhibit NF-κB activation.
Series [2] has as its system TNF-α/D-gal-induced liver injury. How it is done:
Male C57BL/6J ([…], Bar Harbor, Me.), 8-12-wk-old inos^−/− mice and wild type littermates (bred/maintained at the University of Pittsburgh) were used for in vivo experiments.
10 mg/kg subcutaneously (s.c.), Alexis Biochem., San Diego, Calif.) or cobalt protoporphyrin (CoPP, 5 mg/kg, intraperitoneally (i.p.), Frontier Scientific, Logan, Utah). […] Where indicated, acetaminophen (Sigma Chem. Co.; St Louis, Mo.) was administered (500 mg/kg, i.p.).
A CO analyzer (Interscan, Chatsworth, Calif.) was used to measure CO levels continuously in the chamber. CO concentrations were maintained at 250 ppm at all times. Mice were placed in the exposure chamber as required.
Whether HO-1 is protective against acute hepatic failure was investigated. Cobalt protoporphyrin (5 mg/kg, i.p.) was administered to male C57BL/6J mice. Twenty-four hours later, TNF-α/D-gal (0.3 μg/8 mg/mouse, i.p., respectively) was administered to the mice. Serum alanine aminotransferase (ALT) levels in the mice were measured 8 hours after administration of TNF-α/D-gal.
After receiving TNF-α/D-gal, mice were returned to the CO exposure chamber and their serum was analyzed for ALT levels 6-8 hr later.
To generate the data presented in FIGS. 11A-11H, liver samples from mice treated with TNF-α/D-gal in the presence and absence of CO (250 ppm) for 8 hr were sectioned and stained for hematoxylin & eosin (H&E), activated caspase 3 (as indicated by an increase in red intensity), and for TUNEL positive cells (as demarcated by the increased green cellular staining; a marker of cell death). Nuclei stained blue.
L-NIL was administered 2 hr prior to CO. CO-treated animals were then pre-treated (250 ppm) for 1 hr prior to TNF-α/D-gal.
VP was selectively designed to deliver NO directly to the liver. One hour after the initial VP dose, the animals were exposed to CO for 1 hr prior to administration of TNF-α/D-gal (see above). Serum ALT levels were determined 6-8 hr later.
These mice and inos^−/− mice were then administered CoPP. L-NIL was maintained in the water throughout the experiment. Control and inos^−/− mice received normal drinking water. Twenty-four hr after administration of CoPP, TNF-α/D-gal was administered and serum ALT determined 6-8 hr later.

The subject of the next series is HO-1. Kind of series: Liver HO-1 expression (immunoblot). Format: in vivo, mice. As to conditions: L-NIL 5 mg/kg i.p., room air. How it is done: Western blot analysis was performed on primary hepatocytes in culture or from liver homogenates with antibodies to iNOS (Transduction Laboratories, Lexington, Ky.; 1:1000), HO-1 (Calbiochem; 1:2000), or β-actin (Sigma Chemical; 1:5000). Thirty μg protein in cell culture experiments or 100 μg protein from liver homogenates was loaded per well for SDS-PAGE.
To assess the role of iNOS on TNF-α/D-gal-induced HO-1 expression in the liver (data presented in FIG. 16), mice were administered L-NIL (5 mg/kg, i.p.) 2 hr prior to pre-treatment with CO (250 ppm) and every 2 hr thereafter. Control mice received L-NIL and remained in room air.

In series [3] the test system is mouse primary hepatocytes. Kind of series: TNF-α/ActD-induced cell death, crystal violet viability. Format: cell-based. How it is done:
Mouse primary hepatocytes were harvested from C57BL/6J, mkk3^−/−, inos^−/− (in-house breeding colony), or hmox-1^−/− mice as described in Kim et al. (J. Biol. Chem. 272: 1402-1411 (1997)). Hepatocytes were used on days 1-3 following harvest.
Cells were treated with TNF-α (10 ng/ml) and actinomycin-D (Act-D; 200 ng/ml, Sigma Chemical Co. St. Louis, Mo.) to induce cell death.
Whether exogenous CO is protective against hepatocyte cell death in vitro was investigated. To generate the data presented in FIG. 2, mouse hepatocytes were pre-incubated with CO (250 ppm) for 1 hr (standard pre-treatment time for all experiments) prior to addition of TNF-α/Act-D (10 ng/200 ng/ml respectively). Cells were maintained in CO for the duration of the experiment. Twelve hours afterward, cell viability was measured as described in Kim et al. (J. Biol. Chem. 272: 1402-1411 (1997)). Adenoviral experiments involved incubating hepatocytes overnight with 10 pfu/cell of the adenovirus prior to addition of TNF-α/ActD, and then assaying for viability using crystal violet. The roles of signaling molecules guanylyl cyclase and p38 MAPK were also investigated in this model. To evaluate the role of cGMP and confirm the role of NF-κB, hepatocytes were treated separately with the soluble guanylate cyclase (sGC) inhibitor 1H-[1,2,4]Oxadiazolo[4,3-a]quinoxalin-1-one (ODQ; Calbiochem; 2-10 μM) or the NF-κB inhibitor BAY 11-7082, (10 μM). Cells were treated with the inhibitors for 1 hour prior to the 1 hour pretreatment with CO. TNF-α/ActD was then added and the cells tested for viability 12 hours later. NF-κB activation was critical to the protection elicited by CO while cGMP was not involved.
To generate the data presented in FIG. 9, mouse hepatocytes were isolated from inos^−/− or from wild type C57BL/6J mice, which were then pre-treated for 1 hr with L-NIO (1 mM) to inhibit iNOS prior to CO administration. Those groups exposed to CO received a one-hour pretreatment prior to addition of TNF-α/ActD and were then returned to CO exposure.
To generate the data presented in FIG. 19, mouse hepatocytes were isolated from HO-1 null mice (hmox-1^−/−) and wild type (C57BL/6J) littermates, pretreated for 1 hour with CO (250 ppm), and treated with TNF-α/ActD. Viability was assayed as described above.
To generate the data presented in FIG. 20, mouse hepatocytes were isolated from HO-1 null mice (hmox-1^−/−) and wild type (C57BL/6J) littermates, pretreated with the NO donor SNAP (500 μM), and then treated with TNF-α/ActD 1 hour later.

The mark [4] stands for this setting: SNAP 500 μM, 1 hour before TNF-α/ActD.

Take `Cc1ccc(S(=O)(=O)/C=C/C#N)cc1` [BAY 11-7082, reference compound]: the “iNOS luciferase reporter activity with NF-κB inhibitor” value with iNOS is on record as “decreased reporter activity”. Moreover, the “Effect on the protective effects of CO” value in series [1] was “abrogated”.

Regarding `C=CC1=C(C)c2cc3[n-]c(cc4nc(cc5[n-]c(cc1n2)c(C)c5CCC(=O)[O-])C(CCC(=O)[O-])=C4C)c(C)c3C=C.[Co+2].[H+].[H+]` [CoPP, cobalt protoporphyrin], in series [2] (5 mg/kg i.p. 24 h before TNF-α/D-gal, ALT 8 hours after, C57BL/6J mice), the “Liver injury as measured by serum ALT” value is reported as “prevented liver injury”. Further, in series [2] (CoPP with and without L-NIL (4.5 mM drinking water), TNF-α/D-gal 24 hours after CoPP), the Liver injury entry is on record as “protected from liver injury”. The “Reduction in serum ALT” value in series [2] (inos−/− mice, CoPP 24 hr before TNF-α/D-gal, 6-8 hr later) is more than 50%.

With `CC(=N)NCCCC[C@H](N)C(=O)O.Cl.Cl` [L-NIL, L-N6-(1-iminoethyl)-lysine-dihydrochloride, reference compound], the “Severity of liver injury, L-NIL alone” value in series [2] (L-NIL 4.5 mM in drinking water, TNF-α/D-gal) is “did not change the severity of injury”. Moreover, the “Liver HO-1 expression, L-NIL alone” value in the series on HO-1 is “minimal effect”.

For `C=Cc1c2[n-]c(c1C)/C=c1\[n-]/c(c(C)c1C=C)=C\c1[n-]c(c(CCC(=O)O)c1C)/C=c1\[n-]c(c(C)c1CCC(=O)O)=C2.[Sn+4]` [SnPP, tin protoporphyrin], the “Effect on the protective effects of CO” value in series [2] (SnPP 50 μmol/kg s.c. 5 hr prior to CO, TNF-α/D-gal) is recorded as “significantly diminished”. In series [2] (TNF-α/D-gal with SnPP), the “Effect on protection by the NO donor V-PYRRO/NO” value is “abrogated”. In addition, in series [2] (data not shown), the “Effect of administration in the absence of TNF-α/D-gal” value is reported as “no deleterious or protective effects”.

`CC(=O)N[C@H](C(=O)O)C(C)(C)SN=O` [SNAP, s-nitroso-N-acetyl-penicillamine, reference compound]: in series [3] (setting [4]), the “TNF-α/ActD-induced cell death, hmox-1−/− hepatocytes” value was “did not provide significant protection” and the “TNF-α/ActD-induced cell death, wild type hepatocytes” value was “significantly protected against cell death”.

Regarding `O=c1onc2cnc3ccccc3n12` [ODQ, 1H-[1,2,4]Oxadiazolo[4,3-a]quinoxalin-1-one, reference compound], the “Effect on protection provided by CO” value in series [3] (ODQ 2-10 μM, 1 hour prior to CO pretreatment) is “did not reverse the protection”.
